The text below walks through data of patent US20230103791A1 (GLAXOSMITHKLINE INTELLECTUAL PROPERTY DEVELOPMENT LIMITED, priority 2019, published 2023).

In this test the target is T1, human Nav1.8 (Homo sapiens, UniProt Q9Y5Y9).
T1 construct: expressed in transfected cells; host or cells: HEK293 (HEK293-Nav1.8)
T1 sequence (Q9Y5Y9 whole entry): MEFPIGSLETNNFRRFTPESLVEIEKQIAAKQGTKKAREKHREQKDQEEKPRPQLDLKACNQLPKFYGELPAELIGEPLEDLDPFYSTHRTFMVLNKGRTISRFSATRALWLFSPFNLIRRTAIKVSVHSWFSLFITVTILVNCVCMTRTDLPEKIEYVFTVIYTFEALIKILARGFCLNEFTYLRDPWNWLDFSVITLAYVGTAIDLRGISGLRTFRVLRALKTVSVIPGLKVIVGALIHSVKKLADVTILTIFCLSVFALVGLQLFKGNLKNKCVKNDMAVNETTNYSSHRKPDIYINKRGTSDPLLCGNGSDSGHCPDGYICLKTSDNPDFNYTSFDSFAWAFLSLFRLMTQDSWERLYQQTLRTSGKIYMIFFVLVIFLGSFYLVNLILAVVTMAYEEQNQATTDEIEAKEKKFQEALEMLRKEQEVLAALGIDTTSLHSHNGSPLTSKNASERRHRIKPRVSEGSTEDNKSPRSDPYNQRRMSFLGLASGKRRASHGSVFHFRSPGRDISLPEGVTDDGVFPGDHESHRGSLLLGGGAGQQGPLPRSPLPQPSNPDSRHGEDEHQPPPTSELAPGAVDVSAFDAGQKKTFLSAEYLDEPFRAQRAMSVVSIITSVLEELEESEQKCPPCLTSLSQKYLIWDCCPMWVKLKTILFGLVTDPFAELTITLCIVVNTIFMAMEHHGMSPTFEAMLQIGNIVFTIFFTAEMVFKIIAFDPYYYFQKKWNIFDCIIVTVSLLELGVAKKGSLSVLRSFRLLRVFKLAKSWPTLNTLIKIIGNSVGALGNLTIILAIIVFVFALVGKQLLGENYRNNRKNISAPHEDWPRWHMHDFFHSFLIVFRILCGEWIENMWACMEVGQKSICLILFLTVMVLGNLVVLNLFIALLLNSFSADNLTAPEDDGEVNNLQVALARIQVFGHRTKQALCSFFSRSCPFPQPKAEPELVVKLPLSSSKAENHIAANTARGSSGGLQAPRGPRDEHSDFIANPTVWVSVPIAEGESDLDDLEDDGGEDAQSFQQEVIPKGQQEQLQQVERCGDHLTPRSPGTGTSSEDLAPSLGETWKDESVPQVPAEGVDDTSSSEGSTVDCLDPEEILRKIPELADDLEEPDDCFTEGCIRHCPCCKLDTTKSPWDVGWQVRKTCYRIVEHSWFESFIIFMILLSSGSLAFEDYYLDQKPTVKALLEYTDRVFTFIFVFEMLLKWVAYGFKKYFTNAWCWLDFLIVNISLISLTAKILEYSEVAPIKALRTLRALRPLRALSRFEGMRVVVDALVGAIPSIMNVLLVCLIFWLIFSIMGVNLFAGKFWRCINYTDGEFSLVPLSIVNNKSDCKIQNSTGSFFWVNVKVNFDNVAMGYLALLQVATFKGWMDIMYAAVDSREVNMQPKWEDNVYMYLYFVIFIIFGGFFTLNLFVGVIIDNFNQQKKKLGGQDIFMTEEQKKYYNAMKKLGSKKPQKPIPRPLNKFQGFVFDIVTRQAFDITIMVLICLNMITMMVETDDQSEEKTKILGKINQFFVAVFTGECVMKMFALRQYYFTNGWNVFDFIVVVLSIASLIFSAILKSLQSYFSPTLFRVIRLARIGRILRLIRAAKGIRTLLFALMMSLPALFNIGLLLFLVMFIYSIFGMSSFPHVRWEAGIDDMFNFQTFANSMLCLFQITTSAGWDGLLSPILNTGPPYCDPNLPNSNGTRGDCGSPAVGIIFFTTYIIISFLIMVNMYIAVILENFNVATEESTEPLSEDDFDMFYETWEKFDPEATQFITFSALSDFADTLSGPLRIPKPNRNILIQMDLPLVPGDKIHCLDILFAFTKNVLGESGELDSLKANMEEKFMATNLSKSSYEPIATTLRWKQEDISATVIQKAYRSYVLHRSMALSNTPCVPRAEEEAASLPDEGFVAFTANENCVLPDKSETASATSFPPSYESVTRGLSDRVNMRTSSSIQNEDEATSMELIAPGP
T1 sequence (Q07699 19-218 partner): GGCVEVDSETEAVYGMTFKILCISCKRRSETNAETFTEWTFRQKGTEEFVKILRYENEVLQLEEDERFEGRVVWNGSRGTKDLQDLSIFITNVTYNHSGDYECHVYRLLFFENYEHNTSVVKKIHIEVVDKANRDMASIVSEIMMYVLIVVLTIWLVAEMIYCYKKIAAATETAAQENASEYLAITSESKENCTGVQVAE
Briefly: Nav1.8 sodium channels assay, QPatch 48 HTX electrophysiology in HEK293-Nav1.8 cells. In kind it is cell-based. Particulars: at least one set of experimental runs; read-out: average pIC50 value against Nav1.8 (converted). The method, boiled down:
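IC50 came from 6-8 point curves of P2 current amplitude, normalized to baseline and a positive reference, and corrected for run-down using vehicle-only wells. Automated patch clamp used HEK293-Nav1.8 (with Navβ1 and TREK1) at pH 7.4 outside and CsF-based solution inside. An 8 s inactivating step at −46 mV preceded the 0 mV test pulse, repeated at 0.07 Hz.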
On the technique in general: Patch clamp records ionic current or voltage across a cell membrane.
Turning to `Cc1cc(F)ccc1N1CN(c2ccc(=O)[nH]c2C)C(=O)c2c(F)cccc21` [Example 183, 5-fluoro-1-(4-fluoro-2-methylphenyl)-3-(2-methyl-6-oxo-1,6-dihydropyridin-3-yl)-2,3-dihydroquinazolin-4(1H)-one], the IC50 is 126 to 631 nM.

For the compound `CCc1cc(F)ccc1N1CN(c2ccc(=O)[nH]c2C)C(=O)c2ccc(C(F)(F)F)cc21` [Example 184, 1-(2-ethyl-4-fluorophenyl)-3-(2-methyl-6-oxo-1,6-dihydropyridin-3-yl)-7-(trifluoromethyl)-2,3-dihydroquinazolin-4(1H)-one], the IC50 is not above 100 nM.

As for `Cc1cc(F)ccc1N1CN(c2ccc(=O)[nH]c2C)C(=O)c2ccc(OC(F)F)cc21` [Example 185, 7-(difluoromethoxy)-1-(4-fluoro-2-methylphenyl)-3-(2-methyl-6-oxo-1,6-dihydropyridin-3-yl)-2,3-dihydroquinazolin-4(1H)-one], the IC50 was not above 100 nM.

Take `Cc1cc(F)ccc1-n1c(=O)n(-c2ccc(=O)[nH]c2)c(=O)c2ccc(C(F)(F)F)cc21` [Example 186, 1-(4-fluoro-2-methylphenyl)-3-(6-oxo-1,6-dihydropyridin-3-yl)-7-(trifluoromethyl) quinazoline-2,4(1H,3H)-dione]: the IC50 is 794 to 7940 nM.

With `Cc1cc(F)ccc1N1CN(c2ccc(=O)[nH]c2C)C(=O)c2ccc(C3CC3)cc21` [Example 187, 7-cyclopropyl-1-(4-fluoro-2-methylphenyl)-3-(2-methyl-6-oxo-1,6-dihydropyridin-3-yl)-2,3-dihydroquinazolin-4(1H)-one], the IC50 was not above 100 nM.

`Cc1cc(F)ccc1N1CN(c2ccc(=O)[nH]c2C)C(=O)c2cc(OC(F)(F)F)ccc21` [Example 188, 1-(4-fluoro-2-methylphenyl)-3-(2-methyl-6-oxo-1,6-dihydropyridin-3-yl)-6-(trifluoromethoxy)-2,3-dihydroquinazolin-4(1H)-one]: the IC50 is not above 100 nM.

As to `Cc1cc(OC(F)F)ccc1N1CN(c2ccc(=O)[nH]c2C)C(=O)c2cc(C(F)(F)F)ccc21` [Example 189, 1-(4-(difluoromethoxy)-2-methylphenyl)-3-(2-methyl-6-oxo-1,6-dihydropyridin-3-yl)-6-(trifluoromethyl)-2,3-dihydroquinazolin-4(1H)-one], the IC50 was not above 100 nM.

`CCc1[nH]c(=O)ccc1N1CN(c2ccc(F)cc2C)c2cc(OC(F)(F)F)ccc2C1=O` [Example 190, 3-(2-ethyl-6-oxo-1,6-dihydropyridin-3-yl)-1-(4-fluoro-2-methylphenyl)-7-(trifluoromethoxy)-2,3-dihydroquinazolin-4(1H)-one]: the IC50 is not above 100 nM.

As for `CCc1cc(F)ccc1N1CN(c2ccc(=O)[nH]c2C)C(=O)c2cc(Cl)c(F)cc21` [Example 191, 6-chloro-1-(2-ethyl-4-fluorophenyl)-7-fluoro-3-(2-methyl-6-oxo-1,6-dihydropyridin-3-yl)-2,3-dihydroquinazolin-4(1H)-one], the IC50 is not above 100 nM.

As to `CCc1cc(F)ccc1N1CN(c2ccc(=O)[nH]c2C)C(=O)c2cc(Cl)c(C#N)cc21` [Example 192, 6-chloro-1-(2-ethyl-4-fluorophenyl)-3-(2-methyl-6-oxo-1,6-dihydropyridin-3-yl)-4-oxo-1,2,3,4-tetra-hydroquinazoline-7-carbonitrile], the IC50 was not above 100 nM.

For the compound `Cc1cc(F)ccc1N1CN(c2ccc(=O)[nH]c2C)C(=O)c2c1cc(F)c(Cl)c2F` [Example 193, 6-chloro-5,7-difluoro-1-(4-fluoro-2-methylphenyl)-3-(2-methyl-6-oxo-1,6-dihydropyridin-3-yl)-2,3-dihydroquinazolin-4(1H)-one], the IC50 is not above 100 nM.

In the case of `Cc1cc(F)ccc1N1CN(c2ccc(=O)[nH]c2C)C(=O)c2c1cc(C#N)c(Cl)c2F` [Example 194, 6-chloro-5-fluoro-1-(4-fluoro-2-methylphenyl)-3-(2-methyl-6-oxo-1,6-dihydropyridin-3-yl)-4-oxo-1,2,3,4-tetra-hydroquinazoline-7-carbonitrile], the IC50 is not above 100 nM.

As to `Cc1cc(C(F)(F)F)ccc1N1CN(c2ccc(=O)[nH]c2C)C(=O)c2cc(C(F)(F)F)cnc21` [Example 195, 1-(2-methyl-4-(trifluoromethyl)phenyl)-3-(2-methyl-6-oxo-1,6-dihydropyridin-3-yl)-6-(trifluoromethyl)-2,3-dihydropyrido[2,3-d]pyrimidin-4(1H)-one], the IC50 is 794 to 7940 nM.

Turning to `Cc1cc(Cl)ccc1N1CN(c2ccc(=O)[nH]c2C)C(=O)c2cc(C(F)(F)F)cnc21` [Example 196, 1-(4-chloro-2-methylphenyl)-3-(2-methyl-6-oxo-1,6-dihydropyridin-3-yl)-6-(trifluoromethyl)-2,3-dihydropyrido[2,3-d]pyrimidin-4(1H)-one], the IC50 was 126 to 631 nM.

On to `Cc1cc(F)ccc1N1CN(c2ccc(=O)[nH]c2C)C(=O)c2ccc(C(F)(F)CO)cc21` [Example 197, 7-(1,1-difluoro-2-hydroxyethyl)-1-(4-fluoro-2-methylphenyl)-3-(2-methyl-6-oxo-1,6-dihydropyridin-3-yl)-2,3-dihydroquinazolin-4(1H)-one], for which the IC50 was 794 to 7940 nM.

As to `Cc1cc(F)ccc1N1CN(c2ccc(=O)[nH]c2C(C)C)C(=O)c2ccc(C(F)(F)F)cc21` [Example 198, 1-(4-fluoro-2-methylphenyl)-3-(2-isopropyl-6-oxo-1,6-dihydropyridin-3-yl)-7-(trifluoromethyl)-2,3-dihydroquinazolin-4(1H)-one], the IC50 is not above 100 nM.

As for `Cc1cc(F)ccc1N1CN(c2ccc(=O)[nH]c2NCCO)C(=O)c2ccc(C(F)(F)F)cc21` [Example 199, 1-(4-fluoro-2-methylphenyl)-3-(2-((2-hydroxy-ethyl)amino)-6-oxo-1,6-dihydropyridin-3-yl)-7-(trifluoromethyl)-2,3-dihydroquinazolin-4(1H)-one], the IC50 is 126 to 631 nM.

Regarding `Cc1[nH]c(=O)ccc1N1CN(c2ccc(F)cc2N(C)C)c2ccc(Cl)cc2C1=O` [Example 200, 6-chloro-1-(2-(dimethylamino)-4-fluorophenyl)-3-(2-methyl-6-oxo-1,6-dihydropyridin-3-yl)-2,3-dihydroquinazolin-4(1H)-one], the IC50 is not above 100 nM.

For `CNc1cc(F)ccc1N1CN(c2ccc(=O)[nH]c2C)C(=O)c2cc(Cl)ccc21` [Example 201, 6-chloro-1-(4-fluoro-2-(methylamino)phenyl)-3-(2-methyl-6-oxo-1,6-dihydropyridin-3-yl)-2,3-dihydroquinazolin-4(1H)-one], the IC50 is not above 100 nM.

Consider `Cc1cc(C(F)(F)CO)ccc1N1CN(c2ccc(=O)[nH]c2C)C(=O)c2ccc(C(F)(F)F)cc21` [Example 202, 1-(4-(1,1-difluoro-2-hydroxyethyl)-2-methylphenyl)-3-(2-methyl-6-oxo-1,6-dihydropyridin-3-yl)-7-(trifluoromethyl)-2,3-dihydroquinazolin-4(1H)-one], for which the IC50 is 794 to 7940 nM.

As for `Cc1ccc(N2CN(c3ccc(=O)[nH]c3C)C(=O)c3ccc(C(F)(F)F)cc32)c(C)c1` [Example 203, 1-(2,4-dimethylphenyl)-3-(2-methyl-6-oxo-1,6-dihydropyridin-3-yl)-7-(trifluoromethyl)-2,3-dihydroquinazolin-4(1H)-one], the IC50 is not above 100 nM.
